Source: patent US10618914B2 (UNIVERSITY OF PITTSBURGH—OF THE COMMONWEALTH SYSTEM OF …, priority 2015, dated 2020)
Values joined by “and” are separate entries in the source; they are usually repeats but may differ in a detail not shown here. Equal entries are not always repeated. Where two headings read alike, the source gives them in different places.

What was measured:
STAT3 = test: HCS STAT3 assay; assay type: cell-based
Cal33 cells = test: Cal33 growth inhibition; assay type: cell-based; settings: for GI50: Table 5, * average of 2 experiments
[1] = Table 2, read-out: STAT3 (IC50)
[2] = Table 2, read-out: Cal33 (IC50)
[3] = FIG. 3, read-out: STAT3 potency (IC50)
[4] = Homo sapiens, CAL-33, Table 1, read-out: Growth Inhibition Cal33 (mean IC50)
[5] = Table 1, read-out: STAT3 (mean IC50)
[6] = Homo sapiens, CAL-33, Table 2, read-out: Cal33 (IC50)

COC(=O)Cn1nc(-c2nnc3n2N=C(c2ccc(OC)cc2)C(C)S3)c2c1CCC2 (stereo not drawn) [compound 10437]
IC50 (STAT3; [1]): 25.3 µM | IC50 (Cal33 cells; [2]): 2.8 µM

COc1ccc(C2=Nn3c(nnc3-c3cc(-c4ccccc4)n[nH]3)SC2CCN)cc1 (stereo not drawn) [compound 10371]
IC50 (Cal33 cells; [2]): 24.1 µM

COc1ccc(C2=Nn3c(nnc3-c3cc(-c4ccccc4)n(C)n3)SC2C(C)C)cc1 (stereo not drawn) [compound 10554]
IC50 (STAT3; [1]): 8.3 µM | IC50 (Cal33 cells; [2]): 19.1 µM

COc1ccc(C2=Nn3c(nnc3-c3cc(-c4ccccc4)n[nH]3)SC2CC(=O)N2CCCC2)cc1 (stereo not drawn) [compound 10426]
IC50 (STAT3; [3]): < 10 µM | IC50 (STAT3; [1]): 9.1 µM | IC50 (Cal33 cells; [2]): 20.5 µM

COc1ccc(C2=Nn3c(nnc3-c3[nH]nc4c3CCC4)SC2C)cc1OC (stereo not drawn) [compound 10494]
IC50 (STAT3; [1]): 25.1 µM | IC50 (Cal33 cells; [2]): 5.7 µM

CC1Sc2nnc(-c3cc(-c4ccc(Cl)cc4)n[nH]3)n2N=C1c1ccc(Cl)c(Cl)c1 (stereo not drawn) [compound 10537]
IC50 (STAT3; [1]): 16 µM | IC50 (Cal33 cells; [2]): 7.6 µM

CC(C)C1Sc2nnc(-c3cc(-c4ccccc4)n(C)n3)n2N=C1c1ccccc1 (stereo not drawn) [compound 10562]
IC50 (STAT3; [1]): 12.2 µM | IC50 (Cal33 cells; [2]): 50 µM

COc1cccc(C2=Nn3c(nnc3-c3cc(-c4ccccc4)n[nH]3)SC2C)c1 (stereo not drawn) [compound 10475]
IC50 (STAT3; [1]): 7.1 µM | IC50 (Cal33 cells; [2]): 12.4 µM

Cc1ccc(C2=Nn3c(nnc3-c3cc(-c4ccccc4)n[nH]3)SC2C)cc1 (stereo not drawn) [compound 10473]
IC50 (STAT3; [1]): 14.1 µM | IC50 (Cal33 cells; [2]): 12 µM

CCN(CC)c1ccc(C2=Nn3c(nnc3-c3[nH]nc4c3CCC4)SC2C)cc1 (stereo not drawn) [compound 10521]
IC50 (STAT3; [1]): 6.6 µM | IC50 (Cal33 cells; [2]): 1 µM

COc1ccc(C2=Nn3c(nnc3-c3cc(-c4ccccc4)n[nH]3)SC2CCN)cc1 (stereo not drawn) [Cmpd 30]
GI50 (Cal33 cells): 2.5 µM

CC1Sc2nnc(-c3cc(-c4ccccc4)n[nH]3)n2N=C1c1ccccc1 (stereo not drawn) [compound 10131]
IC50 (STAT3; [1]): 3 µM | IC50 (Cal33 cells; [2]): 26.3 µM

COc1cccc(C2=Nn3c(nnc3-c3[nH]nc4c3CCC4)SC2C)c1 (stereo not drawn) [compound 10471]
IC50 (STAT3; [1]): 40.1 µM | IC50 (Cal33 cells; [2]): 3.9 µM

Clc1ccc(C2=Nn3c(nnc3-c3[nH]nc4c3CCC4)SC2)cc1 [UPCDC87346005]
IC50 (Cal33 cells; [4]): 0.77 µM

c1ccc2c(C3=Nn4c(nnc4-c4[nH]nc5c4CCC5)SC3)c[nH]c2c1 [UPCDC10115]
IC50 (STAT3; [5]): 38 µM | IC50 (Cal33 cells; [4]): 0.21 µM

CC1Sc2nnc(-c3[nH]nc4c3CCC4)n2N=C1c1ccc(F)c(F)c1 (stereo not drawn) [compound 10510]
IC50 (STAT3; [1]): 47.1 µM | IC50 (Cal33 cells; [2]): 50 µM

CCN(CC)c1ccc(C2=Nn3c(nnc3-c3cc(-c4ccccc4)n(C)n3)SC2C)cc1 (stereo not drawn) [compound 10555]
IC50 (STAT3; [1]): 3.7 µM | IC50 (Cal33 cells; [2]): 10.5 µM

CC1Sc2nnc(-c3cc(-c4ccccc4)n[nH]3)n2N=C1c1ccc(OC(F)(F)F)cc1 (stereo not drawn) [compound 10474]
IC50 (STAT3; [1]): 24.2 µM | IC50 (Cal33 cells; [2]): 50 µM

CC1Sc2nnc(-c3cc(-c4ccccc4)n[nH]3)n2N=C1c1ccccc1 (stereo not drawn) [compound 10261]
IC50 (STAT3; [1]): 12.3 µM | IC50 (Cal33 cells; [2]): 40 µM

COc1ccc(C2=Nn3c(nnc3-c3cc(-c4ccccc4)n[nH]3)SC2Cc2ccccc2)cc1 (stereo not drawn) [compound 10321]
IC50 (STAT3; [1]): 5.8 µM

O=C(CC1Sc2nnc(-c3cc(-c4ccccc4)n[nH]3)n2N=C1c1ccccc1)N1CCCC1 (stereo not drawn) [compound 10410]
IC50 (STAT3; [1]): 37.3 µM | IC50 (Cal33 cells; [2]): 43.5 µM

COc1ccc(C2=Nn3c(nnc3-c3nn(CC(=O)OC(C)(C)C)c4c3CCC4)SC2C)cc1 (stereo not drawn) [compound 10438]
IC50 (STAT3; [1]): 34.1 µM | IC50 (Cal33 cells; [2]): 49.6 µM

CC1Sc2nnc(-c3cc(-c4cccc(Cl)c4)n[nH]3)n2N=C1c1ccc(Cl)c(Cl)c1 (stereo not drawn) [compound 10538]
IC50 (STAT3; [1]): 32.2 µM | IC50 (Cal33 cells; [2]): 13.7 µM

COc1ccc(C2=Nn3c(nnc3-c3cc(-c4ccccc4)n[nH]3)SC2C)cc1OC (stereo not drawn) [compound 10495]
IC50 (STAT3; [1]): 7.6 µM | IC50 (Cal33 cells; [2]): 13.1 µM

COc1ccc(C2=Nn3c(nnc3-c3[nH]nc4c3CCC4)SC2C)cc1 (stereo not drawn) [UPCDC10262]
IC50 (STAT3; [5]): 8.78 µM | IC50 (STAT3; [1]): 8.8 µM | IC50 (Cal33 cells; [4]): 0.18 µM | IC50 (Cal33 cells; [6]): 0.18 µM

COc1ccc(C2=Nn3c(nnc3-c3cc(-c4ccccc4)n[nH]3)SC2CC(C)C)cc1 (stereo not drawn) [compound 10307]
IC50 (Cal33 cells; [2]): 11.5 µM

CCN(CC)CCC1Sc2nnc(-c3cc(-c4ccccc4)n[nH]3)n2N=C1c1ccc(OC)cc1 (stereo not drawn) [compound 10380]
IC50 (STAT3; [3]): < 10 µM | IC50 (STAT3; [1]): 8.8 µM | IC50 (Cal33 cells; [2]): 3.7 µM

CC1Sc2nnc(-c3cc(-c4ccccc4)n[nH]3)n2N=C1c1ccccc1 (stereo not drawn) [compound 10260]
IC50 (STAT3; [1]): 4.8 µM | IC50 (Cal33 cells; [2]): 42.7 µM

CC1Sc2nnc(-c3cc(-c4ccccc4)n[nH]3)n2N=C1c1ccc(N2CCOCC2)cc1 (stereo not drawn) [compound 10522]
IC50 (STAT3; [1]): 39.3 µM | IC50 (Cal33 cells; [2]): 9.6 µM

COc1ccc(C2=Nn3c(nnc3-c3nn(Cc4ccccc4)c4c3CCC4)SC2C)cc1 (stereo not drawn) [compound 10439]
IC50 (STAT3; [1]): 7.6 µM | IC50 (Cal33 cells; [2]): 1.7 µM

COc1ccc(C2=Nn3c(nnc3-c3[nH]nc4c3CCC4)SC2CCO)cc1 (stereo not drawn) [compound 10403]
IC50 (STAT3; [1]): 49.2 µM | IC50 (Cal33 cells; [2]): 0.93 µM

COc1ccc(C2=Nn3c(nnc3-c3cc(-c4ccccc4)nn3C(C)=O)SC2C)cc1 (stereo not drawn) [compound 10480]
IC50 (STAT3; [1]): 6.3 µM | IC50 (Cal33 cells; [2]): 30.4 µM

CC1Sc2nnc(-c3[nH]nc4c3CCC4)n2N=C1c1ccc(Cl)c(Cl)c1 (stereo not drawn) [compound 10263, 6-(3,4-Dichlorophenyl)-7-methyl-3-(2,4,5,6-tetrahydrocyclopenta[c]pyrazol-3-yl)-7H-[1,2,4]triazolo[3,4-b][1,3,4]thiadiazine]
IC50 (STAT3; [1]): 8.5 µM and 11 µM

COc1ccc(C2=Nn3c(nnc3-c3nn(C)c4c3CCC4)SC2C)cc1 (stereo not drawn) [compound 10420]
IC50 (STAT3; [1]): 46.1 µM | IC50 (Cal33 cells; [2]): 0.38 µM

CC(C)C1Sc2nnc(-c3[nH]nc4c3CCC4)n2N=C1c1ccc(Cl)c(Cl)c1 (racemic) [compound 10299]
IC50 (STAT3; [3]): < 10 µM | IC50 (STAT3; [1]): 4.4 µM | IC50 (Cal33 cells; [2]): 8.2 µM

CC1Sc2nnc(-c3cc(-c4ccccc4)n[nH]3)n2N=C1c1ccc(F)c(F)c1 (stereo not drawn) [compound 10532]
IC50 (STAT3; [1]): 8.6 µM | IC50 (Cal33 cells; [2]): 14.2 µM

COc1cccc(C2=Nn3c(nnc3-c3cc(-c4ccc(Cl)cc4)n[nH]3)SC2C)c1 (stereo not drawn) [compound 10535]
IC50 (STAT3; [1]): 7 µM | IC50 (Cal33 cells; [2]): 6.3 µM

COc1ccc(C2=Nn3c(nnc3-c3nn(C(C)=O)c4c3CCC4)SC2C)cc1 (stereo not drawn) [compound 10421]
IC50 (STAT3; [1]): 37.1 µM | IC50 (Cal33 cells; [2]): 0.26 µM

CCOC(=O)CC1Sc2nnc(-c3cc(-c4ccccc4)n[nH]3)n2N=C1c1ccc(OC)cc1 (stereo not drawn) [compound 10448]
IC50 (STAT3; [1]): 15.5 µM | IC50 (Cal33 cells; [2]): 13.6 µM

COc1cccc(C2=Nn3c(nnc3-c3cc(-c4cccc(Cl)c4)n[nH]3)SC2C)c1 (stereo not drawn) [compound 10536]
IC50 (STAT3; [1]): 9.1 µM | IC50 (Cal33 cells; [2]): 9.3 µM

COC(=O)CC1Sc2nnc(-c3cc(-c4ccccc4)n[nH]3)n2N=C1c1ccccc1 (stereo not drawn) [compound 10423]
IC50 (STAT3; [1]): 17.9 µM | IC50 (Cal33 cells; [2]): 37.9 µM

CC1Sc2nnc(-c3cc(-c4ccc(Cl)cc4)n[nH]3)n2N=C1c1ccccc1 (racemic) [compound 10174]
IC50 (STAT3; [1]): 5.7 µM | IC50 (Cal33 cells; [2]): 35.5 µM

COc1ccc(C2=Nn3c(nnc3-c3[nH]nc4c3CCC4)SC2C(C)C)cc1 (stereo not drawn) [UPCDC10318]
IC50 (Cal33 cells; [4]): 0.4 µM | IC50 (Cal33 cells; [6]): 0.4 µM

COc1ccc(C2=Nn3c(nnc3-c3cc(-c4ccc(Cl)cc4)n[nH]3)SC2C)cc1 (stereo not drawn) [Cmpd 24]
GI50 (Cal33 cells): 2.2 ± 0.3 µM

COCCC1Sc2nnc(-c3cc(-c4ccccc4)n[nH]3)n2N=C1c1ccc(OC)cc1 (stereo not drawn) [Cmpd 31]
GI50 (Cal33 cells): 0.04 µM

Clc1ccc(C2=Nn3c(nnc3-c3cc(-c4ccccc4)n[nH]3)SC2Cc2ccccc2)cc1Cl (stereo not drawn) [compound 10309]
IC50 (STAT3; [1]): 22.6 µM

COc1ccc(C2=Nn3c(nnc3-c3[nH]nc4c3CCC4)SC2)cc1
IC50 (Cal33 cells; [4]): 0.15 µM

COc1ccc(C2=Nn3c(nnc3-c3cc(-c4ccc(Cl)cc4)n[nH]3)SC2C)cc1 (racemic) [compound 10205]
IC50 (Cal33 cells; [2]): 2.1 µM and 2 µM
